# Reference: ChEMBL document CHEMBL3407452, “Linear and branched alkyl-esters and amides of gallic acid and other (mono-, di- and tri-) hydroxy benzoyl derivatives as promising anti-HCV inhibitors” (Eur J Med Chem, 2015)
# Calls of active or inactive are those of the source. No cut-off for these calls is given here.
# Test system: Sindbis virus
# Experiment: Antiviral activity against sindbis virus
# Format: functional, organism-based
# Settings: not given
row,Structure (SMILES),Activity
1,O=C(NCCN(CCN(CCN(CCNC(=O)c1cc(O)c(O)c(O)c1)C(=O)c1cc(O)c(O)c(O)c1)C(=O)c1cc(O)c(O)c(O)c1)C(=O)c1cc(O)c(O)c(O)c1)c1cc(O)c(O)c(O)c1,inactive
2,O=C(NCCCCN(CCCNC(=O)c1ccc(O)c(O)c1O)C(=O)c1ccc(O)c(O)c1O)c1ccc(O)c(O)c1O,inactive

# Test system: Punta Toro virus
# Experiment: Antiviral activity against punta toro virus
# Format: functional, organism-based
# Settings: not given
row,Structure (SMILES),Activity
1,O=C(NCCN(CCN(CCN(CCNC(=O)c1cc(O)c(O)c(O)c1)C(=O)c1cc(O)c(O)c(O)c1)C(=O)c1cc(O)c(O)c(O)c1)C(=O)c1cc(O)c(O)c(O)c1)c1cc(O)c(O)c(O)c1,inactive
2,O=C(NCCCCN(CCCNC(=O)c1ccc(O)c(O)c1O)C(=O)c1ccc(O)c(O)c1O)c1ccc(O)c(O)c1O,inactive

# Test system: not listed separately
# Experiment: Cytotoxicity against human Huh5-2 cells after 72 hrs by MTS assay
# Format: cell-based, Huh-5-2
# Settings: not given
row,Structure (SMILES),CC50 at 72 h
1,O=C(NCCN(CCN(CCN(CCNC(=O)c1cc(O)c(O)c(O)c1)C(=O)c1cc(O)c(O)c(O)c1)C(=O)c1cc(O)c(O)c(O)c1)C(=O)c1cc(O)c(O)c(O)c1)c1cc(O)c(O)c(O)c1,> 50 µM
2,O=C(NCCCCN(CCCNC(=O)c1ccc(O)c(O)c1O)C(=O)c1ccc(O)c(O)c1O)c1ccc(O)c(O)c1O,> 50 µM

# Test system: Reovirus sp.
# Experiment: Antiviral activity against reovirus
# Format: functional, organism-based
# Settings: not given
row,Structure (SMILES),Activity
1,O=C(NCCN(CCN(CCN(CCNC(=O)c1cc(O)c(O)c(O)c1)C(=O)c1cc(O)c(O)c(O)c1)C(=O)c1cc(O)c(O)c(O)c1)C(=O)c1cc(O)c(O)c(O)c1)c1cc(O)c(O)c(O)c1,inactive
2,O=C(NCCCCN(CCCNC(=O)c1ccc(O)c(O)c1O)C(=O)c1ccc(O)c(O)c1O)c1ccc(O)c(O)c1O,inactive

# Test system: Vesicular stomatitis virus
# Experiment: Antiviral activity against vesicular stomatitis virus
# Format: functional, organism-based
# Settings: not given
row,Structure (SMILES),Activity
1,O=C(NCCN(CCN(CCN(CCNC(=O)c1cc(O)c(O)c(O)c1)C(=O)c1cc(O)c(O)c(O)c1)C(=O)c1cc(O)c(O)c(O)c1)C(=O)c1cc(O)c(O)c(O)c1)c1cc(O)c(O)c(O)c1,inactive
2,O=C(NCCCCN(CCCNC(=O)c1ccc(O)c(O)c1O)C(=O)c1ccc(O)c(O)c1O)c1ccc(O)c(O)c1O,inactive

# Test system: Human immunodeficiency virus 2
# Experiment: Antiviral activity against HIV2 ROD infected in human CEM cells assessed as reduction in virus-induced cytopathicity after 4 to 5 days by microscopy based syncytium cell formation assay
# Format: functional, organism-based, ISOLATE ROD, CCRF-CEM
# Settings: Human immunodeficiency virus 2, ISOLATE ROD, CCRF-CEM; read-out: EC50
row,Structure (SMILES),EC50
1,O=C(NCCN(CCN(CCN(CCNC(=O)c1cc(O)c(O)c(O)c1)C(=O)c1cc(O)c(O)c(O)c1)C(=O)c1cc(O)c(O)c(O)c1)C(=O)c1cc(O)c(O)c(O)c1)c1cc(O)c(O)c(O)c1,> 10 µM
2,O=C(NCCCCN(CCCNC(=O)c1ccc(O)c(O)c1O)C(=O)c1ccc(O)c(O)c1O)c1ccc(O)c(O)c1O,> 10 µM

# Test system: Influenza A virus H3N2
# Experiment: Antiviral activity against influenza A virus H3N2
# Format: functional, organism-based
# Settings: not given
row,Structure (SMILES),Activity
1,O=C(NCCN(CCN(CCN(CCNC(=O)c1cc(O)c(O)c(O)c1)C(=O)c1cc(O)c(O)c(O)c1)C(=O)c1cc(O)c(O)c(O)c1)C(=O)c1cc(O)c(O)c(O)c1)c1cc(O)c(O)c(O)c1,inactive
2,O=C(NCCCCN(CCCNC(=O)c1ccc(O)c(O)c1O)C(=O)c1ccc(O)c(O)c1O)c1ccc(O)c(O)c1O,inactive

# Test system: not listed separately
# Experiment: Selectivity index, ratio of CC50 for human CEM cells to EC50 for HIV1 3B
# Format: toxicity, cell-based, CCRF-CEM
# Settings: read-out: Ratio CC50/EC50
row,Structure (SMILES),selectivity ratio
1,O=C(NCCN(CCN(CCN(CCNC(=O)c1cc(O)c(O)c(O)c1)C(=O)c1cc(O)c(O)c(O)c1)C(=O)c1cc(O)c(O)c(O)c1)C(=O)c1cc(O)c(O)c(O)c1)c1cc(O)c(O)c(O)c1,4
2,O=C(NCCCCN(CCCNC(=O)c1ccc(O)c(O)c1O)C(=O)c1ccc(O)c(O)c1O)c1ccc(O)c(O)c1O,10

# Test system: Human respirovirus 3
# Experiment: Antiviral activity against human parainfluenza virus 3
# Format: functional, organism-based
# Settings: not given
row,Structure (SMILES),Activity
1,O=C(NCCN(CCN(CCN(CCNC(=O)c1cc(O)c(O)c(O)c1)C(=O)c1cc(O)c(O)c(O)c1)C(=O)c1cc(O)c(O)c(O)c1)C(=O)c1cc(O)c(O)c(O)c1)c1cc(O)c(O)c(O)c1,inactive
2,O=C(NCCCCN(CCCNC(=O)c1ccc(O)c(O)c1O)C(=O)c1ccc(O)c(O)c1O)c1ccc(O)c(O)c1O,inactive

# Test system: Coxsackievirus B4
# Experiment: Antiviral activity against human coxsackievirus B4
# Format: functional, organism-based
# Settings: not given
row,Structure (SMILES),Activity
1,O=C(NCCN(CCN(CCN(CCNC(=O)c1cc(O)c(O)c(O)c1)C(=O)c1cc(O)c(O)c(O)c1)C(=O)c1cc(O)c(O)c(O)c1)C(=O)c1cc(O)c(O)c(O)c1)c1cc(O)c(O)c(O)c1,inactive
2,O=C(NCCCCN(CCCNC(=O)c1ccc(O)c(O)c1O)C(=O)c1ccc(O)c(O)c1O)c1ccc(O)c(O)c1O,inactive

# Test system: not listed separately
# Experiment: Cytotoxicity against human CEM cells assessed as inhibition of cell proliferation
# Format: cell-based
# Settings: CEM cells (CCRF-CEM)
row,Structure (SMILES),CC50
1,O=C(NCCN(CCN(CCN(CCNC(=O)c1cc(O)c(O)c(O)c1)C(=O)c1cc(O)c(O)c(O)c1)C(=O)c1cc(O)c(O)c(O)c1)C(=O)c1cc(O)c(O)c(O)c1)c1cc(O)c(O)c(O)c1,21 µM
2,O=C(NCCCCN(CCCNC(=O)c1ccc(O)c(O)c1O)C(=O)c1ccc(O)c(O)c1O)c1ccc(O)c(O)c1O,27 µM

# Test system: Felid alphaherpesvirus 1
# Experiment: Antiviral activity against feline herpesvirus
# Format: functional, organism-based
# Settings: not given
row,Structure (SMILES),Activity
1,O=C(NCCN(CCN(CCN(CCNC(=O)c1cc(O)c(O)c(O)c1)C(=O)c1cc(O)c(O)c(O)c1)C(=O)c1cc(O)c(O)c(O)c1)C(=O)c1cc(O)c(O)c(O)c1)c1cc(O)c(O)c(O)c1,inactive
2,O=C(NCCCCN(CCCNC(=O)c1ccc(O)c(O)c1O)C(=O)c1ccc(O)c(O)c1O)c1ccc(O)c(O)c1O,inactive

# Test system: Vaccinia virus
# Experiment: Antiviral activity against vaccinia virus
# Format: functional, organism-based
# Settings: Orthopoxvirus vaccinia
row,Structure (SMILES),Activity
1,O=C(NCCN(CCN(CCN(CCNC(=O)c1cc(O)c(O)c(O)c1)C(=O)c1cc(O)c(O)c(O)c1)C(=O)c1cc(O)c(O)c(O)c1)C(=O)c1cc(O)c(O)c(O)c1)c1cc(O)c(O)c(O)c1,inactive
2,O=C(NCCCCN(CCCNC(=O)c1ccc(O)c(O)c1O)C(=O)c1ccc(O)c(O)c1O)c1ccc(O)c(O)c1O,inactive

# Test system: Chikungunya virus
# Experiment: Antiviral activity against chikungunya virus
# Format: functional
# Settings: not given
row,Structure (SMILES),Activity
1,O=C(NCCN(CCN(CCN(CCNC(=O)c1cc(O)c(O)c(O)c1)C(=O)c1cc(O)c(O)c(O)c1)C(=O)c1cc(O)c(O)c(O)c1)C(=O)c1cc(O)c(O)c(O)c1)c1cc(O)c(O)c(O)c1,inactive
2,O=C(NCCCCN(CCCNC(=O)c1ccc(O)c(O)c1O)C(=O)c1ccc(O)c(O)c1O)c1ccc(O)c(O)c1O,inactive

# Test system: Influenza A virus
# Experiment: Antiviral activity against influenza A virus (H1N1)
# Format: functional, organism-based
# Settings: not given
row,Structure (SMILES),Activity
1,O=C(NCCN(CCN(CCN(CCNC(=O)c1cc(O)c(O)c(O)c1)C(=O)c1cc(O)c(O)c(O)c1)C(=O)c1cc(O)c(O)c(O)c1)C(=O)c1cc(O)c(O)c(O)c1)c1cc(O)c(O)c(O)c1,inactive
2,O=C(NCCCCN(CCCNC(=O)c1ccc(O)c(O)c1O)C(=O)c1ccc(O)c(O)c1O)c1ccc(O)c(O)c1O,inactive

# Test system: Respiratory syncytial virus
# Experiment: Antiviral activity against RSV
# Format: functional, organism-based
# Settings: not given
row,Structure (SMILES),Activity
1,O=C(NCCN(CCN(CCN(CCNC(=O)c1cc(O)c(O)c(O)c1)C(=O)c1cc(O)c(O)c(O)c1)C(=O)c1cc(O)c(O)c(O)c1)C(=O)c1cc(O)c(O)c(O)c1)c1cc(O)c(O)c(O)c1,inactive
2,O=C(NCCCCN(CCCNC(=O)c1ccc(O)c(O)c1O)C(=O)c1ccc(O)c(O)c1O)c1ccc(O)c(O)c1O,inactive

# Test system: Hepatitis C virus
# Experiment: Antiviral activity against HCV genotype 1b I389luc-ubi-neo/NS3-3'/5.1 replicons infected in human Huh5-2 HCV subgenomic replicon-containing cells assessed as reduction in virus replication after 3 days by luciferase reporter gene assay
# Format: functional, Hepacivirus hominis
# Settings: Hepatitis C virus, genotype 1b, Huh-5-2, 72 h
row,Structure (SMILES),EC90
1,O=C(NCCN(CCN(CCN(CCNC(=O)c1cc(O)c(O)c(O)c1)C(=O)c1cc(O)c(O)c(O)c1)C(=O)c1cc(O)c(O)c(O)c1)C(=O)c1cc(O)c(O)c(O)c1)c1cc(O)c(O)c(O)c1,> 50 µM
2,O=C(NCCCCN(CCCNC(=O)c1ccc(O)c(O)c1O)C(=O)c1ccc(O)c(O)c1O)c1ccc(O)c(O)c1O,> 50 µM

# Same assay, conditions: Hepatitis C virus, genotype 1b, Huh-5-2, 72 h; read-out: EC50
row,Structure (SMILES),EC50
1,O=C(NCCN(CCN(CCN(CCNC(=O)c1cc(O)c(O)c(O)c1)C(=O)c1cc(O)c(O)c(O)c1)C(=O)c1cc(O)c(O)c(O)c1)C(=O)c1cc(O)c(O)c(O)c1)c1cc(O)c(O)c(O)c1,34 µM
2,O=C(NCCCCN(CCCNC(=O)c1ccc(O)c(O)c1O)C(=O)c1ccc(O)c(O)c1O)c1ccc(O)c(O)c1O,34 µM

# Test system: Human immunodeficiency virus 1
# Experiment: Antiviral activity against HIV1 3B infected in human CEM cells assessed as reduction in virus-induced cytopathicity after 4 to 5 days by microscopy based syncytium cell formation assay
# Format: functional, organism-based, CCRF-CEM
# Settings: Human immunodeficiency virus 1, 3B, CCRF-CEM; read-out: EC50
row,Structure (SMILES),EC50
1,O=C(NCCN(CCN(CCN(CCNC(=O)c1cc(O)c(O)c(O)c1)C(=O)c1cc(O)c(O)c(O)c1)C(=O)c1cc(O)c(O)c(O)c1)C(=O)c1cc(O)c(O)c(O)c1)c1cc(O)c(O)c(O)c1,4.9 µM
2,O=C(NCCCCN(CCCNC(=O)c1ccc(O)c(O)c1O)C(=O)c1ccc(O)c(O)c1O)c1ccc(O)c(O)c1O,2.6 µM

# Test system: Feline coronavirus
# Experiment: Antiviral activity against feline coronavirus
# Format: functional, organism-based
# Settings: not given
row,Structure (SMILES),Activity
1,O=C(NCCN(CCN(CCN(CCNC(=O)c1cc(O)c(O)c(O)c1)C(=O)c1cc(O)c(O)c(O)c1)C(=O)c1cc(O)c(O)c(O)c1)C(=O)c1cc(O)c(O)c(O)c1)c1cc(O)c(O)c(O)c1,inactive
2,O=C(NCCCCN(CCCNC(=O)c1ccc(O)c(O)c1O)C(=O)c1ccc(O)c(O)c1O)c1ccc(O)c(O)c1O,inactive
